Source: paper PMC3038857, “Using Nuclear Receptor Activity to Stratify Hepatocarcinogens” (PLoS ONE, 2011)

How the values were obtained:
[1] = test system: HMGCS2; assay: CLZD_HMGCS2: Change in expression of HMGCS2 (primary human hepatocytes); assay type: cell-based; conditions: 24 hr, scale not given, looks like -log10 of molar active concentration, 0 = no activity
In short: (§1)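 Five-point concentration series (0.004-40 µM) applied to primary human hepatocytes; 6/24/48 hr timepoints; transcript quantified by multiplexed nuclease protection.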

[2] = target: T1, PPARa (PPARA) (Homo sapiens, UniProt Q07869); assay: NVS_NR_hPPARa: Human PPARa Fluormone Pan-PPAR green (cell-free HTS); assay type: binding; conditions: scale not given, looks like -log10 of molar active concentration, 0 = no activity
T1 sequence (Q07869 1-468): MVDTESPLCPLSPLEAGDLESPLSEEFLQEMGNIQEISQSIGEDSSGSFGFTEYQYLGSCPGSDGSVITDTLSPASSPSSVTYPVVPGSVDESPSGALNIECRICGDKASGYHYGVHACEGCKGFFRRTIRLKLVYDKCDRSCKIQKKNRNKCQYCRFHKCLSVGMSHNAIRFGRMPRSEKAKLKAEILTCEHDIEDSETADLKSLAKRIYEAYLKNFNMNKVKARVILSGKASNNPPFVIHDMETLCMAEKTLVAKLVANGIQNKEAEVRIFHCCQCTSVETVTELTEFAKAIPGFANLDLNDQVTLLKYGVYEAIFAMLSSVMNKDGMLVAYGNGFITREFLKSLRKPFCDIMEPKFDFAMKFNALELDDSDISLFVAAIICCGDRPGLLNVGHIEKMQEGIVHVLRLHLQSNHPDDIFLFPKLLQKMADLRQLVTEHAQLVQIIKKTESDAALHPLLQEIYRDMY
From the text: These are a collection of biochemical assays measuring binding constants and enzyme inhibition values. Chemicals were initially screened at a single concentration in duplicate wells at a concentration of 10 [drawing 63] M for cytochrome P-450 assays and 25 [drawing 64] M for all others. […] These assays were run by Caliper Life Sciences (Hanover, MD) under contract to EPA. Short assay descriptions are available at: http://www.caliperls.com/products/contract-research/in-vitro/.
Cell-free HTS Assays: A collection of biochemical assays measuring binding constants and enzyme inhibition values. […] These assays were run by Caliper Life Sciences (Hanover, MD) under contract to EPA. Short assay descriptions are available at http://www.caliperls.com/products/contract-research/in-vitro/. Values for all endpoints were imported into GeneData Screener (Basel, Switzerland) and normalised to solvent controls from the same plate as the tested compounds and expressed as percent of neutral control. Concentration-response curves were fit in GeneData Screener (Basel, Switzerland) Condeseo module using the Hill equation and AC50 values were determined. […] Detailed description of the methods, data and analysis methods for this dataset are described in a separate publication.

[3] = test system: CYP2B6; assay: CLZD_CYP2B6: Change in expression of CYP2B6 (primary human hepatocytes); assay type: cell-based; conditions: 24 hr, scale not given, looks like -log10 of molar active concentration, 0 = no activity
In short: as §1

[4] = target: T2, ESR1 (estrogen receptor 1) (Homo sapiens, UniProt P03372); assay: ATG_ERE_CIS: Factorial reporter gene assay (HepG2); assay type: cell-based; conditions: HepG2; scale not given, looks like -log10 of molar active concentration; 0 = no activity
T2 construct: expressed in transfected cells; host or cells: HepG2
T2 sequence (P03372 whole entry): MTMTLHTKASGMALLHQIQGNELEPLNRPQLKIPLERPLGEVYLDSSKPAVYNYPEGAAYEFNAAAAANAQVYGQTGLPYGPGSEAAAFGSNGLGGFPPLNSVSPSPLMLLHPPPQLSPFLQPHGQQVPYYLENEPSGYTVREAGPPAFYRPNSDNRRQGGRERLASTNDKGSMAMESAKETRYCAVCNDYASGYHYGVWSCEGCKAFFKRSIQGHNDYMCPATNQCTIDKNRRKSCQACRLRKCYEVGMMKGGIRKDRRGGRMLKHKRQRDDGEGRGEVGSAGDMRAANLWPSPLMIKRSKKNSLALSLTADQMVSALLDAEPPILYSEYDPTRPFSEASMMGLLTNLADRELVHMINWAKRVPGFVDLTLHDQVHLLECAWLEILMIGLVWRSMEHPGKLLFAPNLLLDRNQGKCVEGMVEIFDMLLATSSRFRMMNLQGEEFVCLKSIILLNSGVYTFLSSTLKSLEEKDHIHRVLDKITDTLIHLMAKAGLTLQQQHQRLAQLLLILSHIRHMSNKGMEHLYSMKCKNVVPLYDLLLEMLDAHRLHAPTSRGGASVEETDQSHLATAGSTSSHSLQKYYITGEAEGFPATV
In short: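 HepG2 cells transfected with multiplexed reporter libraries: cis-acting binding-site reporters (CIS) and a one-hybrid nuclear-receptor trans system (TRANS). Chemicals tested at seven concentrations, starting at the maximum tolerated concentration with three-fold serial dilutions.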

[5] = test system: ABCB11; assay: CLZD_ABCB11: Change in expression of ABCB11 (primary human hepatocytes); assay type: cell-based; conditions: 24 hr, scale not given, looks like -log10 of molar active concentration, 0 = no activity
In short: as §1

[6] = test system: LXR (NR1H3); assay: ATG_DR4_LXR_CIS: Factorial reporter gene assay (HepG2); assay type: cell-based, human; parameters: scale not given here; conditions: scale not given, looks like -log10 of molar active concentration, 0 = no activity
Method: A multiple reporter transcription unit (MRTU) library consisting of 48 transcription factor binding sites was transfected into the HepG2 human liver hepatoma cell line. In addition to the cis-acting reporter genes (CIS), a modification of the approach was used to generate a trans-system (TRANS) with a mammalian one-hybrid assay consisting of an additional 25 MRTU library reporting the activity of nuclear receptor super-family members. […] These assays were performed by Attagene Inc. (Morrisville NC) under contract to EPA.
In addition to the cis-acting reporter genes (CIS), a modification of the approach was used to generate a trans-system (TRANS) with a mammalian one-hybrid assay consisting of an additional 25 MRTU library reporting the activity of nuclear receptor super-family members. […] Chemicals were then tested in the CIS and TRANS assays at seven concentrations starting at the MTC and followed by three-fold serial dilutions. These assays were performed by Attagene Inc. (Morrisville NC) under contract to EPA. Detailed description of the methods, data and analysis methods for this dataset will be presented in a separate publication.

| Structure (SMILES) | CLZD_HMGCS2_24 [1] | NVS_NR_hPPARa [2] | CLZD_CYP2B6_24 [3] | ATG_ERE_CIS [4] | CLZD_ABCB11_24 [5] | ATG_DR4_LXR_CIS [6] |
| --- | --- | --- | --- | --- | --- | --- |
| Nc1cnn(-c2ccccc2)c(=O)c1Cl [r56] | 0 | 0 | 0 | 0 | 0 | 0 |
| COC(=O)c1ccccc1CS(=O)(=O)NC(=O)Nc1nc(OC)cc(OC)n1 [r33] | 0 | 0 | 0 | 0 | 0 | 0 |
| COc1cc(Cl)c(OC)cc1Cl [r57] | 0 | 0 | 5.434 | 0 | 0 | 0 |
| CCCCOCN(C(=O)CCl)c1c(CC)cccc1CC [r46] | 0 | 0 | 5.29 | 0 | 0 | 0 |
| COc1nc(C)nc(NC(=O)NS(=O)(=O)c2ccccc2Cl)n1 [r63] | 0 | 0 | 0 | 0 | 0 | 0 |
| CCSC(=O)N(CC(C)C)CC(C)C [r49] | 0 | 0 | 6.583 | 0 | 0 | 0 |
